This is an account of results in ChEMBL document CHEMBL1201862, “PubChem BioAssay data set” (2004).

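Five compound concentrations were applied to cells in 96-well plates for 48 hours; endpoints were derived by simple linear interpolation of the resulting dose-response curve. Here, GI50 denotes the concentration required for 50% inhibition of growth.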 Activity calls are given as the source filed them. No stated cut-off is given here; in the data, active = GI50 up to about 1.1 µM and inactive = higher.

What all share (test): inhibition of tumour cell growth, NCI panel, 48 h
Test [1] concerns SF-295.
Test [2] has as its system DU-145.
Test [3] concerns COLO 205.
The subject of test [4] is HOP-62.
Test [5] relates to SF-268.
For test [6], the system named is HCT-15.
Test [7] concerns NCI-H460.
Test [8] deals with RPMI-8226.
Test [9] deals with HL-60.
The test system of test [10] is SW-620.
Test [11] has as its system KM12.
Test [12] deals with OVCAR-3.
The subject of test [13] is ACHN.
Test [14] deals with A498.
The test system of test [15] is IGROV-1.
The subject of test [16] is HT-29.
Test [17] relates to MDA-MB-435.
Test [18] relates to K562.
Test [19] concerns PC-3.
For test [20], the system named is SK-MEL-5.

As to `CCNCC(=O)O[C@]1(CC)C(=O)OCc2c1cc1n(c2=O)Cc2cc3ccccc3nc2-1`, the GI50 is 0.0586 µM (active) in test [1]; 0.0465 µM (active) in test [2]; 1.69 µM (inactive) in [3]; 0.0275 µM (active) in test [4]; 0.0767 µM (active) in test [5]; 1.85 µM in test [6]. Further, the GI50 is 0.0277 µM (active) in test [7]; 0.237 µM (active) in test [8]; 0.056 µM (active) in test [9]; 0.434 µM (active) in test [10]; 0.778 µM (active) in [11]; 2.07 µM (inactive) in [12]. Besides, the GI50 is 0.0441 µM (active) in test [13]; 0.661 µM (active) in test [14]; 2.2 µM (inactive) in [15]; 0.889 µM (active) in test [16]; 1.36 µM (inactive) in test [17]; 0.598 µM (active) in test [18]. In addition, the figures for the GI50 in [19] and in test [20] were 0.741 µM (active) and 0.267 µM (active), respectively.
As for `O=C(/C=C/c1ccc([N+](=O)[O-])cc1)c1nc2ccccc2[nH]1`, the GI50 was > 100 µM (inactive) in [1]; 97.3 µM (inactive) in test [2]; 58.7 µM (inactive) in test [3]; > 34.2 µM (inactive) in [4]; 39.4 µM (inactive) in test [5]; 33 µM in test [6]. In addition, the GI50 in test [7] was 11.4 µM (inactive); in [8] it was 5.73 µM (inactive); in test [9], 5.2 µM (inactive); in [10], 26.2 µM (inactive); in [11], 29.9 µM (inactive); in test [12], 9.44 µM (inactive). Besides, the GI50 in [13] is 74.3 µM (inactive); in test [14], 1.73 µM (inactive); in test [15] it was 1.68 µM (inactive); in [16], 38.5 µM (inactive); in [17], > 72.3 µM (inactive); in test [18], 3.66 µM (inactive). Also, the GI50 in test [19] is > 64.4 µM (inactive); in test [20] it was 52.2 µM (inactive).
As to `CSc1nc2c3ccccc3ccn2c1C(=O)N/N=C/c1ccccc1`, the GI50 in test [1] is 24 µM (inactive); in test [2], > 74.6 µM (inactive); in test [3] it was > 73.6 µM (inactive); in test [4], 13 µM (inactive); in [5], 19.7 µM (inactive); in [6] it was more than 100 µM. Further, the GI50 in [7] was 17.3 µM (inactive); in test [8], > 100 µM (inactive); in [9], > 100 µM (inactive); in test [10] it was 97.9 µM (inactive); in [11], > 100 µM (inactive); in test [12] it was 17.9 µM (inactive). The GI50 in test [13] is 9.06 µM (inactive); in [14] it was 31.5 µM (inactive); in [15], 33.7 µM (inactive); in [16], > 100 µM (inactive); in test [17] it was > 100 µM (inactive); in test [18], > 100 µM (inactive). In addition, the GI50 in [19] was > 100 µM (inactive); in test [20], > 74.8 µM (inactive).
Take `COc1ccc(/C=C/C(=O)Oc2ccc(/C=C3\CCCCC3=O)cc2)cc1`: the GI50 was 18.4 µM (inactive) in [1]; > 100 µM (inactive) in test [2]; 19.5 µM (inactive) in test [3]; 23.1 µM (inactive) in [4]; 8 µM (inactive) in test [5]; 29.1 µM in test [6]. Further, the GI50 in test [7] is > 100 µM (inactive); in test [8], 3.61 µM (inactive); in test [9], 12.6 µM (inactive); in [10], > 93.1 µM (inactive); in test [11] it was 56.1 µM (inactive); in [12] it was > 100 µM (inactive). Further, the GI50 in test [13] was > 100 µM (inactive); in test [14], > 100 µM (inactive); in [15], 38.6 µM (inactive); in test [16], 6.28 µM (inactive); in [17] it was > 44.6 µM (inactive); in test [18], > 100 µM (inactive). The GI50 in test [19] and in [20] was > 100 µM (inactive) throughout.
Consider `COc1c(O)c(O)cc2c1-c1ccc(OC)c(=O)cc1C(NC(C)=O)CC2` (centres undefined), for which the GI50 in [1] is 5.13 µM (inactive); in test [2] it was 12.3 µM (inactive); in test [3], 3.13 µM (inactive); in test [4] it was 7.6 µM (inactive); in test [5] it was 5.52 µM (inactive); in [6], 30.6 µM. The GI50 in test [7] was 6.07 µM (inactive); in [8] it was 10.9 µM (inactive); in test [9] it was 4.85 µM (inactive); in [10] it was 4.41 µM (inactive); in test [11], 3.43 µM (inactive); in [12], 2.21 µM (inactive). Besides, the GI50 in [13] was 37.5 µM (inactive); in test [14], 15.5 µM (inactive); in test [15] it was 5.26 µM (inactive); in test [16], 3.07 µM (inactive); in test [17], 1.6 µM (inactive); in test [18] it was 3.57 µM (inactive). In addition, the GI50 in test [19] was 6.62 µM (inactive); in [20], 2.52 µM (inactive).
Regarding `COc1cc(/C=C2/C[C@H]3[C@@H]4CC=C5C[C@@H](O)CC[C@]5(C)[C@H]4CC[C@]3(C)NC2=O)cc(OC)c1OC`, the GI50 was 19.6 µM (inactive) in test [1]; 2.28 µM (inactive) in test [2]; > 38.9 µM (inactive) in [3]; 23.1 µM (inactive) in test [4]; 9.12 µM (inactive) in test [5]; 16.3 µM in test [6]. In addition, the GI50 in [7] is 11.8 µM (inactive); in test [8], 5.46 µM (inactive); in [9], 0.405 µM (active); in test [10] it was > 73.8 µM (inactive); in test [11], 30.9 µM (inactive); in [12] it was 28.7 µM (inactive). For the same molecule, the GI50 is 18.9 µM (inactive) in test [13]; 5.24 µM (inactive) in test [14]; 11.8 µM (inactive) in [15]; 24 µM (inactive) in test [16]; 20.7 µM (inactive) in [17]; 40.3 µM (inactive) in test [18]. Moreover, the GI50 was 18.7 µM (inactive) in [19] and 6.7 µM (inactive) in test [20].
For `CCCc1nc(Cl)nc(Cl)c1Cl`, the GI50 in test [1] was 2.33 µM (inactive); in test [2], 2.41 µM (inactive); in test [3], 0.232 µM (active); in [4], 0.908 µM (active); in [5], 1.85 µM (inactive); in [6], 0.0796 µM. Moreover, the GI50 is 0.505 µM (active) in test [7]; 0.258 µM (active) in test [8]; 0.189 µM (active) in test [9]; 0.0675 µM (active) in [10]; 0.543 µM (active) in test [11]; 0.129 µM (active) in test [12]. In addition, the GI50 in test [13] is 0.611 µM (active); in [14], 2.87 µM (inactive); in test [15], 0.807 µM (active); in test [16], 0.269 µM (active); in test [17] it was 0.422 µM (active); in [18], < 0.0343 µM (active). The GI50 in test [19] is 0.438 µM (active); in test [20], 0.935 µM (active).
Turning to `O=C1/C(=C/c2ccc3c(c2)CCC3)Cc2cc3c(cc21)CCC3`, the GI50 in test [1] is > 100 µM (inactive); in [2] it was > 100 µM (inactive); in [3], > 100 µM (inactive); in test [4], > 100 µM (inactive); in [5] it was > 100 µM (inactive); in test [6], more than 100 µM. Besides, the GI50 in [7], in test [8], in test [9], in [10], in test [11] and in test [12] was > 100 µM (inactive) throughout. The GI50 in test [13], in [14], in test [15], in [16], in test [17] and in test [18] was > 100 µM (inactive) throughout. For the same molecule, the GI50 in test [19] and in [20] was > 100 µM (inactive) each time.
Consider `COc1ccc(N2C(=O)C3c4[nH]c5ccccc5c4C4CCCCCCCCCC4C3C2=O)cc1` (centres undefined), for which the GI50 in test [1] is > 10 µM (inactive); in test [2] it was > 10 µM (inactive); in [3], > 10 µM (inactive); in test [4] it was > 10 µM (inactive); in [5], > 10 µM (inactive); in [6] it was more than 10 µM. The GI50 in test [7], in test [8], in [9], in [10], in [11] and in test [12] was > 10 µM (inactive) throughout. Also, the GI50 in test [13], in test [14], in test [15], in [16], in test [17] and in [18] was > 10 µM (inactive) each time. Further, the GI50 in test [19] and in [20] was > 10 µM (inactive) each time.
Regarding `N#CC(=C1CCCCC1)c1nc2ccccc2o1`, the GI50 is > 100 µM (inactive) in test [1]; > 100 µM (inactive) in [2]; 19.6 µM (inactive) in test [3]; > 100 µM (inactive) in test [4]; 55.2 µM (inactive) in test [5]; 49.4 µM in test [6]. Further, the GI50 in [7] is > 100 µM (inactive); in test [8], 25.9 µM (inactive); in test [9], 35.2 µM (inactive); in test [11], 32 µM (inactive); in test [12], 56.5 µM (inactive); in test [13] it was > 100 µM (inactive). Moreover, the GI50 is > 100 µM (inactive) in test [14]; 83 µM (inactive) in [15]; 61.5 µM (inactive) in test [16]; > 100 µM (inactive) in test [17]; 69.8 µM (inactive) in [18]; 56.9 µM (inactive) in [19]. Further, in test [20], the GI50 was 41.4 µM (inactive).
